Measurements as given in patent US8936941B2, “Compositions useful for cancer detection and treatment, a cancer stem cell model, and methods of production and use thereof” (priority 2008, dated 2015).

Assays:
[1] = test system: let-7a miRNA; assay: pLet7a-Luc luciferase reporter gene assay in SW480 cells; format: cell-based, human; settings: normalized to Renilla luciferase
Procedure: Luciferase reporter gene assay. pLet7a-Luc reporter vector contains a let-7a miRNA specific binding site at the 3′UTR of the firefly (Photinus pyralis) luciferase gene obtained from Signosis Inc (FIG. 26). HCT116 and SW480 cells were transfected with the pLet7a-Luc reporter vector, Renilla luciferase expressing plasmid pRL-TK (Promega) along with DCAMKL-1 or scrambled siRNA using Transfectol™ (Ambion Inc.). Luciferase activity was determined as per the manufacturer's instructions (Dual-Luciferase Reporter Assay System; Promega) using a Monolight 2010 luminometer (Analytical Luminescence Laboratory, San Diego, Calif.) as described earlier [Stadler et al., 2008; Sossey-Alaoui et al., 1999]. The activity, normalized to Renilla Luciferase activity, is presented as relative luciferase units relative to control with ±SEM values. Assays were performed in triplicate wells and experiments were repeated 3 times.

[2] = test system: HCV subgenomic replicon; assay: HCV replication in GS5 cells (Huh7.5 with HCV subgenomic replicon); format: cell-based, hepatitis C virus; settings: 48 hours
Procedure: FIG. 61 illustrates that DCAMKL-1 is required for the HCV replication. A. siRNA against DCAMKL-1 (Si-DCAMKL1, 50 nM and 100 nM) or scrambled siRNA (SCR, 100 nM) were transfected into GS5 cells. Total RNAs were extracted and subjected to real-time quantitative PCR. The levels of HCV and DCAMKL-1 RNAs were considered arbitrary as one unit in untransfected GS5 cells (Cont). Actin mRNA in each sample was used as internal control for PCR. B. Western blot analysis of siRNAs tranfected and untransfected samples as indicated.
Induction of putative stem cell/pluripotency factors by HCV: Normal adult hepatocytes are fully differentiated cells and lack expression of pluripotency factors. However, these cells can be induced to proliferate rapidly after partial hepatectomy and can also be reprogrammed into stem-like cells by forced expression of a cocktail of transcription factors. Thus, the impact of HCV on expression pattern of stem/progenitor cell markers was investigated in GS5 cells, which are derived from hepatoma cell line (Huh7.5) and support constitutive replication of a subgenomic HCV replicon under G418 selection. The replicon expresses HCV nonstructural proteins NS3 through NS5B of the HCV-1a strain and green florescent protein (GFP)-NS5A chimera. Total lysates from parent Huh7.5 and GS5 cells were subjected to Western blot analysis (FIG. 59).
Putative intestinal stem cell marker DCAMKL1 is required for the HCV replication: The eccentric, punctate staining of HCV replication complexes consisting of most of the nonstructural proteins and cellular factors has been a puzzling question. It is known that these replication complexes associate with microtubules in order to replicate the HCV RNA. The DCAMKL1 protein, which binds and polymerizes tubulin into microtubule filaments, is considered as a putative marker for quiescent stem cells in the intestine, and its expression is increased in cancer stem cells. During confocal microscopy, most DCAMKL1 localization was consistently observed in the area containing replication complexes (indicated by NS5A-GFP) and high concentration of microtubules (FIG. 60). The perinuclear co-localization of DCAMKL1 with the NS5A-GFP (indicated by yellow stain) was also observed.

Substance: si-DCAMKL-1: siRNA targeting the coding region of DCAMKL-1 (NM_004734), sequence GGGAGUGAGAACAAUCUAC (SEQ ID NO:3) (chemistry not given here; listed as Homo sapiens)
- luciferase activity (let-7a binding site at 3' UTR) [1]: dose dependent reduction
- NS5B polymerase level ([2]; Western blot): decreases
- HCV RNA level ([2]; siRNA 50 nM and 100 nM): decreases
- expression of DCAMKL1 ([2]; siRNA 50 nM and 100 nM): effectively inhibited
